# Experimental data from patent publication US20240277693A1, “A PHARMACEUTICAL PRODUCT CONTAINING TASQUINIMOD AND A METHOD FOR ASSESSING THE PURITY OF SAID PRODUCT” (ACTIVE BIOTECH AB, priority 2021, published 2024).
# Experiments:
# Type in all cases: physicochemical
# [1] = Stability testing of capsules at 25° C./60% RH in water impermeable blister pack
# Excerpt: (§1) In some embodiments, the method disclosed herein comprises storing (keeping) a sample of the pharmaceutical product for a period of time, preferably under selected conditions of temperature and humidity. The amount (or concentration) of tasquinimod and of at least one of compounds I, II, III and IV in the sample may preferably be determined at the beginning or before the storage period and at the end of the storage period. The selected storage conditions may include a temperature in the range of, for example, 20° C. to 40° C., and a relative humidity in the surrounding atmosphere in the range of, for example, 30% to 75%; e.g. 25° C. and 60% RH, or 30° C. and 65% RH, or 35° C. and 70% RH, or 40° C. and 75% RH. The storage period may extend over a time period in the range of, for example, several weeks to several years. For example, the stability testing period (“storage period”) may be 2 weeks, 3 weeks, 1 month, 2 months, 3 months, 4 months, 5 months, 6 months, 9 months, 1 year, 18 months, 2 years, 3 years, 4 years or even 5 years or longer. A shorter storage period may be selected by use of higher storage temperature and/or higher relative humidity (RH). The total amount of a tasquinimod decomposition product in the sample at the end of the storage period may be determined by, for example, HPLC.
# The batch of capsules manufactured in Example 19 was assessed by determining the amount of tasquinimod and the amount of each one of compounds I, II, III and IV in a sample of the capsules at the end of a 3-month stability testing, whereby the criterion for approving the batch was that the capsules of the sample, at the end of the 3-month stability testing, contain a total amount of compounds I-IV of not more than 5.0% w/w, relative to the amount of tasquinimod in the capsules. The stability testing consisted of keeping the capsules, in a water impermeable blister pack, at 25° C./60% RH. At the end of the stability testing, the capsules contained 0.06% w/w of compound I, less than 0.05% w/w of compound II, 0.10% of compound III and less than 0.05% w/w of compound IV, relative to the amount of tasquinimod (determined to be 0.246 mg/capsule), viz. in total less than 0.26% w/w of compounds I-IV relative to the amount of tasquinimod. Therefore, according to the selected criterion for approval, the batch of capsules was determined to be suitable for distribution.
# (§2) The obtained batch of capsules was subjected to multiple assessments, viz. a first assessment comprising determining the amount of tasquinimod and the amount of compounds I, II, III and IV in a sample of the capsules directly after manufacturing, whereby the selected criterion for approving the batch for distribution was that the capsules of the sample, in a water impermeable blister pack, contain not more than in total 5% w/w of compounds I-IV relative to the amount of tasquinimod, followed by eight further, independent assessments, by determining the amount of tasquinimod and the amount of each one of compounds I, II, III and IV in a sample of the capsules at the end of a period of stability testing (by keeping the capsules, in a water impermeable blister pack, at 25° C./60% RH) of 3, 6, 9, 12, 18, 24, 36 and 48 months, respectively, whereby each time the criterion for approving the batch was that the capsules of the sample, at the end of each period of stability testing, contain a total amount of compounds I-IV of not more than 5.0% w/w, relative to the amount of tasquinimod in the capsules.
# [2] = Drug product stability studies (general observations)
# Excerpt: In a drug product, compound I is formed with compound II from hydrolysis of tasquinimod. […] Compound II is further decarboxylated to form compound III.
# Compound III is the decarboxylated species formed from the degradation of compound II.
# The mechanism for formation of compound IV in a drug product is unknown.
# [3] = Assessment of capsules after manufacture: amount of tasquinimod and of decomposition products; details: 0 months (after manufacturing)
# Excerpt: as §1
# The obtained batch of capsules was assessed by determining the amount of tasquinimod and the amount of compound III in a sample of the capsules. The selected criterion for approving the batch was that the capsules of the sample contain not more than 1.0% w/w of compound III relative to the amount of tasquinimod. […] Therefore, according to the selected criterion for approval, the batch of capsules was determined to be suitable for distribution.
# The obtained batch of capsules was assessed by determining the amount of tasquinimod and the amount of compounds I, II, III and IV in a sample of the capsules. The selected criterion for approving the batch was that the capsules of the sample contain not more than in total 5% w/w of compounds I-IV relative to the amount of tasquinimod. […] Therefore, according to the selected criterion for approval, the batch of capsules was determined to be suitable for distribution.
# as §2
# [4] = 0.25 mg capsules of Example 19, 18 months
# [5] = 0.25 mg capsules of Example 19, 24 months
# [6] = 0.25 mg capsules of Example 19, 36 months
# [7] = 0.25 mg capsules of Example 19, 48 months
# [8] = 0.5 mg capsules of Example 28, 3 months
# [9] = 0.5 mg capsules of Example 28, 6 months
# [10] = 0.5 mg capsules of Example 28, 9 months
# [11] = 0.5 mg capsules of Example 28, 12 months
# [12] = 0.5 mg capsules of Example 28, 18 months
# [13] = 0.5 mg capsules of Example 28, 24 months
# [14] = 0.5 mg capsules of Example 28, 36 months
# [15] = 0.5 mg capsules of Example 28, 48 months
# [16] = 1.0 mg capsules of Example 29, 3 months
# [17] = 1.0 mg capsules of Example 29, 6 months
# [18] = 1.0 mg capsules of Example 29, 9 months
# [19] = 1.0 mg capsules of Example 29, 12 months
# [20] = 1.0 mg capsules of Example 29, 18 months
# [21] = 1.0 mg capsules of Example 29, 24 months
# [22] = 1.0 mg capsules of Example 29, 36 months
# [23] = 1.0 mg capsules of Example 29, 48 months
SMILES,"amount of decomposition product (each of compounds I-IV) in capsules, relative to the amount of tasquinimod [1, 4] [% w/w]","amount of decomposition product (each of compounds I-IV) in capsules, relative to the amount of tasquinimod [1, 5] [% w/w]","amount of decomposition product (each of compounds I-IV) in capsules, relative to the amount of tasquinimod [1, 6] [% w/w]","amount of decomposition product (each of compounds I-IV) in capsules, relative to the amount of tasquinimod [1, 7] [% w/w]","Decomposition products (% w/w), relative to the amount of tasquinimod in capsule [1, 8] [% w/w]","Decomposition products (% w/w), relative to the amount of tasquinimod in capsule [1, 9] [% w/w]","Decomposition products (% w/w), relative to the amount of tasquinimod in capsule [1, 10] [% w/w]","Decomposition products (% w/w), relative to the amount of tasquinimod in capsule [1, 11] [% w/w]","Decomposition products (% w/w), relative to the amount of tasquinimod in capsule [1, 12] [% w/w]","Decomposition products (% w/w), relative to the amount of tasquinimod in capsule [1, 13] [% w/w]","Decomposition products (% w/w), relative to the amount of tasquinimod in capsule [1, 14] [% w/w]","Decomposition products (% w/w), relative to the amount of tasquinimod in capsule [1, 15] [% w/w]","Decomposition products (% w/w), relative to the amount of tasquinimod in capsule [1, 16] [% w/w]","Decomposition products (% w/w), relative to the amount of tasquinimod in capsule [1, 17] [% w/w]","Decomposition products (% w/w), relative to the amount of tasquinimod in capsule [1, 18] [% w/w]","Decomposition products (% w/w), relative to the amount of tasquinimod in capsule [1, 19] [% w/w]","Decomposition products (% w/w), relative to the amount of tasquinimod in capsule [1, 20] [% w/w]","Decomposition products (% w/w), relative to the amount of tasquinimod in capsule [1, 21] [% w/w]","Decomposition products (% w/w), relative to the amount of tasquinimod in capsule [1, 22] [% w/w]","Decomposition products (% w/w), relative to the amount of tasquinimod in capsule [1, 23] [% w/w]",further results
"COc1cccc2c1c(O)c(C(=O)O)c(=O)n2C [Compound II, 4-hydroxy-5-methoxy-1-methyl-2-oxo-1,2-dihydroquinoline-3-carboxylic acid]",0.05,0.05,0.06,0.06,<0.05,<0.05,<0.05,<0.05,<0.05,<0.05,<0.05,<0.05,<0.05,<0.05,0.06,0.06,0.06,0.06,0.07,0.08,"change of the amount of the compound in tasquinimod drug product on storage [2]: slight increase; Decomposition products (% w/w), relative to the amount of tasquinimod in capsule ([3]; 0.5 mg capsules of Example 28): <0.05 % w/w; Decomposition products (% w/w), relative to the amount of tasquinimod in capsule ([3]; 1.0 mg capsules of Example 29): <0.05 % w/w"
"COc1cccc2c1c(O)c(Cc1c(O)c3c(OC)cccc3n(C)c1=O)c(=O)n2C [Compound IV, 3,3′-methylenebis(4-hydroxy-5-methoxy-1-methylquinolin-2(1H)-one)]",0.07,0.10,0.15,0.19,<0.05,<0.05,<0.05,<0.05,<0.05,0.06,0.09,0.11,<0.05,<0.05,<0.05,<0.05,<0.05,<0.05,<0.05,<0.05,"change of the amount of the compound in tasquinimod drug product on storage [2]: increase under accelerated conditions; Decomposition products (% w/w), relative to the amount of tasquinimod in capsule ([3]; 0.5 mg capsules of Example 28): <0.05 % w/w; Decomposition products (% w/w), relative to the amount of tasquinimod in capsule ([3]; 1.0 mg capsules of Example 29): <0.05 % w/w"
"CNc1ccc(C(F)(F)F)cc1 [Compound I, N-methyl-4-(trifluoromethyl)aniline]",0.10,0.13,0.16,0.16,<0.05,0.05,0.06,0.07,0.06,0.07,0.07,0.08,<0.05,<0.05,<0.05,<0.05,<0.05,<0.05,<0.05,<0.05,"amount of decomposition product (each of compounds I-IV) in capsules, relative to the amount of tasquinimod ([1]; 0.25 mg capsules of Example 19, 3 months): 0.06 % w/w; amount of decomposition product (each of compounds I-IV) in capsules, relative to the amount of tasquinimod ([1]; 0.25 mg capsules of Example 19, 6 months): 0.08 % w/w; amount of decomposition product (each of compounds I-IV) in capsules, relative to the amount of tasquinimod ([1]; 0.25 mg capsules of Example 19, 9 months): 0.12 % w/w; amount of decomposition product (each of compounds I-IV) in capsules, relative to the amount of tasquinimod ([1]; 0.25 mg capsules of Example 19, 12 months): 0.11 % w/w; change of the amount of the compound in tasquinimod drug product on storage [2]: increase under any storage conditions; Decomposition products (% w/w), relative to the amount of tasquinimod in capsule ([3]; 0.5 mg capsules of Example 28): <0.05 % w/w; Decomposition products (% w/w), relative to the amount of tasquinimod in capsule ([3]; 1.0 mg capsules of Example 29): <0.05 % w/w"
